Calls of active or inactive are those of the source.
Columns and labels:
[1] = HGIII-sPLA2 enzyme inhibition potency – biochemical, QFRET, IC50, dose response (AID 743457);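 also: green fluorescence rise as the enzyme cleaves BODIPY PC-A2 in liposomes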
Cytochrome P450 2D6 = Cytochrome P450 2D6 (Homo sapiens, UniProt P10635);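 also: CYP2D6 member of a cytochrome P450 panel assay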
Major prion protein = Major prion protein (Homo sapiens, UniProt P04156); assay type: functional, cell-based
cells [2] = test: cells
[3] = molecular target: T1, Polyadenylate-binding protein 1 (Homo sapiens, UniProt P11940); test: MLLE domain peptide-binding blockers, IC50 – biochemical, fluorescence polarization, FITC-PAM2 peptide, dose response (AID 602259); assay type: functional; settings: read-out: IC50_Mean
[4] = molecular target: T1, Polyadenylate-binding protein 1; test: MLLE binding blockers, Cy5 peptide tracer – biochemical, fluorescence polarization, Cy5-PAM2 peptide, secondary, miRNA deadenylation inhibitor project, dose response (AID 602260); assay type: functional; settings: read-out: IC50_Mean
[5] = molecular target: NAD-dependent protein deacylase sirtuin-5, mitochondrial (Homo sapiens, UniProt Q9NXA8); test: sirtuin-5 deacylation blockers, concentration series – biochemical, fluorescence imaging, cherry-pick, set 5, dose response (AID 720591);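 also: desuccinylation of succinyl peptide AMC substrate read as fluorescence after trypsin release; potency of inhibitors that lower fluorescence and may act on trypsin instead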
[6] = general mammalian cell viability loss – activator set, cherry-pick, cytotoxicity control for miR-122 modulator project, dose response (AID 720690); assay type: functional, cell-based;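 also: HEK293T human cells scored for general mammalian cytotoxicity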
[7] = Luminescence-based cell-based high throughput dose response assay to identify activators of the DAF-12 from the parasite S. stercoralis (ssDAF-12).; assay type: functional
[8] = molecular target: T2, Oxysterols receptor LXR-beta (Homo sapiens, UniProt P55055); test: LXR agonists, Gal4 luciferase reporter, dose response, counter-screen for ssDAF-12 agonist project, cell-based, luminescence, HEK293, S. stercoralis campaign (AID 720737); assay type: functional; settings: read-out: IC50 (the source's name)
T2 sequence (P55055 whole entry): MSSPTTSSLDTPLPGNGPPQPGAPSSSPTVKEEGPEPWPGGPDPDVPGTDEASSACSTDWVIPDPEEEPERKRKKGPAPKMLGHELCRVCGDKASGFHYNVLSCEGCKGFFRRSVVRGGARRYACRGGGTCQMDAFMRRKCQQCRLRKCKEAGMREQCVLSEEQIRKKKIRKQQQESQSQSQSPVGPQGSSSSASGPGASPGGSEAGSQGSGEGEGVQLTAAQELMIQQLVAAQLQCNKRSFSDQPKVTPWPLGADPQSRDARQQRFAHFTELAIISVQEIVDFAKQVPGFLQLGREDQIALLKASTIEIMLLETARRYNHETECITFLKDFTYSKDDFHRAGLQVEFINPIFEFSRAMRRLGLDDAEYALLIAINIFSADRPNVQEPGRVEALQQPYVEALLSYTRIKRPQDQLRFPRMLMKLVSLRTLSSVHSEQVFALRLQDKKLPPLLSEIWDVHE

[9] = reduced cellular PGC1a acetyl-lysine signal – cell-based, cherry-picked samples, dose response (AID 720514); assay type: functional;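 also: potency may reflect raised or lowered acetylation signal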
Nonstructural protein 1 = Nonstructural protein 1 (Influenza A virus, UniProt Q194T2); assay type: functional, Influenza A virus (A/California/07/2009(H1N1))
Cytochrome P450 2C9 = Cytochrome P450 2C9 (Homo sapiens, UniProt P11712)
[10] = molecular target: Peroxisome proliferator-activated receptor gamma/Nuclear receptor coactivator 2 (Homo sapiens, UniProt P37231); test: (§1) TR-FRET dose response biochemical High Throughput Screening assay for agonists of the steroid receptor coactivator 2 (SRC-2) recruitment by the peroxisome proliferator-activated receptor gamma (PPAR gamma): non-selective agonists. [Related pubchem assays: 1297, 1032 ]; assay type: functional
[11] = molecular target: Peroxisome proliferator-activated receptor gamma/Nuclear receptor coactivator 1 (Homo sapiens, UniProt P37231); test: as §1, with “1 (SRC-1)” for “2 (SRC-2)”, “assays (depositor defined):AID1300, AID1808, AID504735, AID631]” for “assays: 1297, 1032 ]”; assay type: protein assay
[12] = molecular target: Peroxisome proliferator-activated receptor gamma/Nuclear receptor coactivator 3 (Homo sapiens, UniProt P37231); test: as §1, with “3 (SRC-3)” for “2 (SRC-2)”, “1301 (Confirmation screen.), 1048 (Primary screen.)]” for “1297, 1032 ]”; assay type: functional
cells [13] = test: cells; remark: listed apart in the source
[14] = molecular target: T2, Oxysterols receptor LXR-beta; assay type: functional, cell-based
[15] = molecular target: T3, Microphthalmia-associated transcription factor (Homo sapiens, UniProt O75030); test: reducers of TRPM1 reporter luminescence, concentration series – cell-based, SK-MEL-5, cherry-picked, set 3, MITF inhibitor project, dose response (AID 493073); assay type: functional;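 also: SK-MEL-5 melanoma cells with luciferase driven by the MITF target TRPM1 promoter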
T3 sequence (O75030 whole entry): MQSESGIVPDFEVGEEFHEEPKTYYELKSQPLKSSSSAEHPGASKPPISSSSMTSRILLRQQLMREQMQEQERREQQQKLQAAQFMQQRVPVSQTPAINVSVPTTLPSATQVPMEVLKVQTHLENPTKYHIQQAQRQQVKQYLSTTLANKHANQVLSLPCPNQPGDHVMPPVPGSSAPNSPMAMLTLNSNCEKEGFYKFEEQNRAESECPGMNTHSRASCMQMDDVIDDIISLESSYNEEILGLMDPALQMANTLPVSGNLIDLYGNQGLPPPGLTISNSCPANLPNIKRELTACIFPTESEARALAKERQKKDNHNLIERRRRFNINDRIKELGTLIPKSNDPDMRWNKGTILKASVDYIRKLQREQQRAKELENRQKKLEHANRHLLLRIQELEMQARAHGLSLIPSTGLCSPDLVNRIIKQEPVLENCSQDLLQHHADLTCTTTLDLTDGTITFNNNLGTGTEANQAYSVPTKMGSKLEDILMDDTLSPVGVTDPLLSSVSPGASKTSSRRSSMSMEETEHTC

[16] = molecular target: T4, Calpain-2 catalytic subunit (Sus scrofa, UniProt P43367); test: m-calpain protease blockers, concentration series – biochemical, fluorogenic peptide substrate, dose response (AID 1420); assay type: functional
T4 sequence (P43367 whole entry): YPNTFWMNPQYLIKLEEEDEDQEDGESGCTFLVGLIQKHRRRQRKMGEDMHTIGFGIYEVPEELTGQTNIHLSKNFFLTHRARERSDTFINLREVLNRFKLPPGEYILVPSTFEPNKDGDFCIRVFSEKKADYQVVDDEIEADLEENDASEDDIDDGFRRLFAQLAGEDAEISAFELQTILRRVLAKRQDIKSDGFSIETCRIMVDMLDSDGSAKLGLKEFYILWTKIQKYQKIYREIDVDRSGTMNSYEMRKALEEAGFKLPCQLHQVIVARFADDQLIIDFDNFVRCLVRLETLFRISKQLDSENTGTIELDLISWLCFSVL

Protein skinhead-1 = molecular target: T5, Protein skinhead-1 (Caenorhabditis elegans, UniProt P34707); assay type: functional
T5 sequence (P34707 whole entry): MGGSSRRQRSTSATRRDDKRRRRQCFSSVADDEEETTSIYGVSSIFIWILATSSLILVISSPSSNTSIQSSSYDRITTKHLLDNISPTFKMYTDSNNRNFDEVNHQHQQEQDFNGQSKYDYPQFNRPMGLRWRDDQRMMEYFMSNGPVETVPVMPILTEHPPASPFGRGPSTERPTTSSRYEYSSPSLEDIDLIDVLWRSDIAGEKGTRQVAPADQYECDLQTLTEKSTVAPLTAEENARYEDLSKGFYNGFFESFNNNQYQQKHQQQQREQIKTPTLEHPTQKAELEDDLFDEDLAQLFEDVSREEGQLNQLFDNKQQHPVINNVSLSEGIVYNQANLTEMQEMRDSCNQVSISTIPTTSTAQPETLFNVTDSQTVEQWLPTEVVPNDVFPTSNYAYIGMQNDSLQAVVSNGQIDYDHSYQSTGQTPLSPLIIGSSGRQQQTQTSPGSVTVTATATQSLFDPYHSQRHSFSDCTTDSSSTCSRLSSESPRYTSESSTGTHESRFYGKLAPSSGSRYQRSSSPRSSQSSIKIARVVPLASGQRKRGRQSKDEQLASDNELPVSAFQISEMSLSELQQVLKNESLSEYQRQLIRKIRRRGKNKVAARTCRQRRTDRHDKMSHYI

Albumin = Albumin (Bos taurus, UniProt P02769); test: Counterscreen for inhibitors of T-cell receptor (TCR)-CD3 interaction: Fluorescence-based biochemical high throughput dose response assay to identify inhibitors of T-cell receptor (TCR)-CD3 interaction using a TAMRA-labeled BSA probe.; assay type: functional
[17] = molecular target: T6, Rac GTPase-activating protein 1 (Homo sapiens, UniProt Q9H0H5); test: blockers of MgcRacGAP-driven Rac1 GTP hydrolysis – biochemical, ADP Hunter fluorescence, primary and confirmatory, confirmation (AID 624330); assay type: functional
T6 sequence (Q9H0H5 whole entry): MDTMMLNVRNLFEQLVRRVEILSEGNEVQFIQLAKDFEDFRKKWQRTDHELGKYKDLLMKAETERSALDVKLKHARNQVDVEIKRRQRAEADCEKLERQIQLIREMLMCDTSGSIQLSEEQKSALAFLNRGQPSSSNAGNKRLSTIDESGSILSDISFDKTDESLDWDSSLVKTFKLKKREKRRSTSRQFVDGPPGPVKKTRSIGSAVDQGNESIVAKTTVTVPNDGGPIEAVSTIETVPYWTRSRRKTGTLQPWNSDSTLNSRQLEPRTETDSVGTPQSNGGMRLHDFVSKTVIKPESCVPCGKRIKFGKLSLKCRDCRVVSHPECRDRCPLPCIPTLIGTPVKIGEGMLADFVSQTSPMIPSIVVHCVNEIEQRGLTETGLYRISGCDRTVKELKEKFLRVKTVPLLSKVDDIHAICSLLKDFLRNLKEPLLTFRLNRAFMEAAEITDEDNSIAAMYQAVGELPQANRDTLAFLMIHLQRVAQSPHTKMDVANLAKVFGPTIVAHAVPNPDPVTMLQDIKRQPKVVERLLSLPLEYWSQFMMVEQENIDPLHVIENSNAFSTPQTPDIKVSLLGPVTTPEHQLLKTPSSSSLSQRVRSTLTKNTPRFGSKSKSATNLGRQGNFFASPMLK

CCOc1cc(NC(=O)C(C)C)c(OCC)cc1N=C(S)NCc1ccccc1
IC50 [1]: > 122 µM (inactive)

Clc1cccc(Nc2ncnc3ccc(Br)cc23)c1
AC50 (Cytochrome P450 2D6): 31.6 µM (inconclusive) | IC50 (Major prion protein): 6.28 µM (active) | IC50 (cells [2]): 122 µM (inactive)

O=C(CSc1ncnc2ccccc12)NCc1ccco1
IC50 [3]: > 66 µM (inactive) | IC50 (Major prion protein): 6.83 µM (active) | IC50 (cells [2]): > 138 µM (inactive) | IC50 [4]: > 66 µM (inactive)

Cc1cc(C)c(NC(=O)CSc2nc3cc(Br)c[nH]c-3n2)c(C)c1
AC50 [5]: > 30 µM (inactive)

COCC(=O)N1[C@H](CO)[C@@H](c2ccccc2)[C@H]1CNC(=O)c1ccccn1
AC50 [6]: 37.2 µM (active)

Cc1ccc(N/C=C/C(=O)c2ccccc2)cc1Br
IC50 [7]: > 67.6 µM (inactive) | EC50 [8]: > 67.6 µM (inactive)

Cn1c(CNc2ccc(F)cc2)nc2ccccc21
IC50 [7]: > 67.5 µM (inactive) | EC50 [8]: > 67.5 µM (inactive)

COC(=O)c1ccccc1N(C)S(=O)(=O)c1cc2c(cc1C)OCC(=O)N2
AC50 [9]: 24.1 µM (active)

O=C1c2ccccc2C(=O)c2c1cccc2N1CCOCC1
IC50 [1]: > 122 µM (inactive) | IC50 (Nonstructural protein 1): 19.7 µM (active)

c1ccc(Cc2nnc(Sc3ccccc3)c3ccccc23)cc1
AC50 (Cytochrome P450 2C9): 25.1 µM (inconclusive) | EC50 [10]: 2.35 µM (active) | EC50 [11]: > 79.4 µM (inactive) | IC50 (Major prion protein): 6.51 µM (active) | IC50 (cells [2]): 64 µM (inactive) | EC50 [12]: > 79.4 µM (not active)

Cc1ccc(S(=O)(=O)Nc2ccccc2C(=O)NCc2cccnc2)cc1
AC50 [9]: 25.6 µM (active)

NC(=O)c1ccc(C(F)(F)F)cn1
AC50 [5]: > 30 µM (inactive)

CCc1ccc(NS(=O)(=O)c2c(C)noc2C)cc1
AC50 [5]: > 30 µM (inactive)

CC1C(=O)N2CCCc3cc(S(=O)(=O)NCCc4ccccc4)cc1c32 (configuration not stated)
AC50 [5]: > 30 µM (inactive)

c1ccc(-c2ccc(-c3ccccn3)s2)nc1
IC50 [7]: > 67.6 µM (inactive) | EC50 [8]: > 67.6 µM (inactive) | EC50 (cells [13]): > 67.5 µM (inactive) | EC50 [14]: > 67.5 µM (inactive)

Clc1cccc(-c2nc(-c3ccccn3)no2)c1
EC50 (cells [13]): > 67.5 µM (inactive) | EC50 [14]: > 67.5 µM (inactive) | AC50 [15]: 5.92 µM (active)

CCN(CC)S(=O)(=O)c1ccc(NC(=O)CSc2ncnc3ccccc23)cc1
IC50 (Major prion protein): 7.17 µM (active) | IC50 (cells [2]): > 138 µM (inactive)

COc1ccc(-c2cc3ccccc3c(=O)o2)cc1
EC50 (cells [13]): > 67.5 µM (inactive) | EC50 [14]: > 67.5 µM (inactive)

CCc1sc(C(=O)N2CCc3ccccc32)cc1C
IC50 [7]: > 67.5 µM (inactive) | EC50 [8]: > 67.5 µM (inactive) | IC50 [16]: 9.39 µM (not active)

O=C(Nc1ccc(Cl)cc1)N1C[C@H]2[C@@H](c3ccccc31)[C@H](CO)N2CC1CCCCC1
AC50 [6]: 28.7 µM (active)

O=C(/C=C\Nc1cccc(F)c1)c1cccs1
EC50 (cells [13]): > 67.5 µM (inactive) | IC50 (Protein skinhead-1): 28.1 µM (active) | EC50 [14]: > 67.5 µM (inactive)

COc1cccc(OCC(=O)NNC(=O)c2ccc3ccccc3c2O)c1
IC50 [1]: > 122 µM (inactive) | IC50 (Albumin): > 94.1 µM (inactive)

CO[C@H]1CN(C)C(=O)c2cc(NC(=O)NC(C)C)ccc2OC[C@H](C)N(Cc2ccc(-c3ccccn3)cc2)C[C@@H]1C
AC50 [9]: 22.6 µM (active)

Cc1ccc(Nc2nnc(S)s2)c(C)c1
IC50 [17]: 154 µM (active) | IC50 [1]: > 122 µM (inactive)

CC(C)c1nc(SCC(=O)N2CC(=O)Nc3ccccc32)c2ccccc2n1
IC50 (Major prion protein): 2.41 µM (active) | IC50 (cells [2]): 67.3 µM (inactive)

Source: ChEMBL document CHEMBL1201862, “PubChem BioAssay data set” (2004)
